# Measured values reported in patent US9738648B2, “Pyridines, pyrimidines, and pyrazines, as BTK inhibitors and uses thereof” (Merck Patent GmbH, priority 2013, dated 2017).
# Biological target: T1, full-length human BTK (Homo sapiens, UniProt Q06187)
# T1 construct: 2.5× stocks of full-length human BTK (08-080) from CarnaBio USA, Inc; purchased CarnaBio USA, Inc., Natick, Mass; 08-080
# Assay: BTK IC50 Enzyme Assay (Assay A), microfluidic off-chip mobility shift kinase assay
# Format: biochemical
# Conditions: kinKDR peptide substrate, 90 min at 27° C.
# Method: BTK IC50 Enzyme Assay (Assay A)
# The following describes a microfluidic, off-chip mobility shift kinase assay used to measure inherent potency of compounds against BTK enzyme.
# 2.5× stocks of full-length human BTK (08-080) from CarnaBio USA, Inc., Natick, Mass., 1.6×ATP and appropriate kinKDR peptide substrate (FITC-AHA-EEPLYWSFPAKKK10 NH2) were prepared in kinase reaction buffer consisting of 25 mM MgCl2, 0.015% Brij-35 (30%), 100 mM Hepes, pH 7.5, and 10 mM DTT.
# 5 uL of enzyme buffer and 7.5 uL of ATP/kinKDR peptide substrate mix were added to Matrix (#115304) 384-well, sterile, polypropylene plates (Thermo Fisher Scientific, 15 Hudson, N.H.) with 125 nL of serially diluted compounds prepared in 100% DMSO, and incubated for 90 min. at 27° C. Following the incubation period, reactions were stopped by adding 60 uL stop buffer consisting of 100 mM Hepes, pH 7.5, 0.015% Brij-35 (30%), 0.277% Coating Reagent #3 (Caliper Life Sciences, Mountain View, Calif.), 5% DMSO. Stopped reactions were monitored at −2 PSI, −3000 V/−700 V in a LabChip 3000 plate 20 reader from Caliper Life Sciences, a PerkinElmer Company (Hopkinton, Mass.), and the activity was measured by off-chip mobility shift assay measuring the charge/mass difference between substrate and product resulting from peptide phosphorilation. IC50 and efficacy were determined by plotting log [Inhibitor] vs. % Activity in GeneData Screener (Basel, Switzerland).
# T1 sequence (Q06187 whole entry): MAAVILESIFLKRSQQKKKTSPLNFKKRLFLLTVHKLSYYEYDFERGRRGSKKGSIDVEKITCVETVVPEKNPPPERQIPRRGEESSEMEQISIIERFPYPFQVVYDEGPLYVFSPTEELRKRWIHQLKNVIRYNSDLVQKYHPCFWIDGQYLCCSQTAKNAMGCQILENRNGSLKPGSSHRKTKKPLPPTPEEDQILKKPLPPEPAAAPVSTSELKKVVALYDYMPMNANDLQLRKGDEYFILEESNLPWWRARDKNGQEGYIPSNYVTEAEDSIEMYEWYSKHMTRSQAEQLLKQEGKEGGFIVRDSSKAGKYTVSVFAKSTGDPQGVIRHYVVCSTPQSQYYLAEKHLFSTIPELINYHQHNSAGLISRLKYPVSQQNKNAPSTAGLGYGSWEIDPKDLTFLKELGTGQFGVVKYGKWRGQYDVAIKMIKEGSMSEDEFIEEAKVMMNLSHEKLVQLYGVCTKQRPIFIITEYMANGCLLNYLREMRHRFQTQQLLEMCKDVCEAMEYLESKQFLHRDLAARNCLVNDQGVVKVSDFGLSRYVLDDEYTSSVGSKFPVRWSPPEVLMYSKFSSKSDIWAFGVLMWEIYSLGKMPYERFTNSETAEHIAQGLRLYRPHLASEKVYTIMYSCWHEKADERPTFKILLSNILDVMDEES
row,SMILES,IC50 [nM]
1,"CN(C)C/C=C/C(=O)N1CCCC(Cn2ccc3ncnc(Oc4ccc(Oc5ccccc5)cc4)c32)C1 (centres unmarked) [Compound 30, (E)-4-(dimethylamino)-1-(3-((4-(4-phenoxyphenoxy)-5H-pyrrolo[3,2-d]pyrimidin-5-yl)methyl)piperidin-1-yl)but-2-en-1-one]",< 100
2,"CC1=CC(C)=[N+]2C1=Cc1ccc(CCC(=O)NCCN3CCN(C/C=C/C(=O)N4CC(n5ccc6ncnc(Oc7ccc(Oc8ccccc8)cc7)c65)C4)CC3)n1[B-]2(F)F [Compound 32, (E)-5,5-difluoro-1,3-dimethyl-7-(3-oxo-3-((2-(4-(4-oxo-4-(3-(4-(4-phenoxyphenoxy)-5H-pyrrolo[3,2-d]pyrimidin-5-yl)azetidin-1-yl)but-2-en-1-yl)piperazin-1-yl)ethyl)amino)propyl)-5H-dipyrrolo[1,2-c:2′,1′-f][1,3,2]diazaborinin-4-ium-5-uide]",100 to 1000
3,"CN(C)C/C=C/C(=O)N[C@H]1C[C@H](n2ccc3ncnc(Oc4ccc(Oc5ccccc5)cc4)c32)C1 [Compound 33, (E)-4-(dimethylamino)-N-(trans-3-(4-(4-phenoxyphenoxy)-5H-pyrrolo[3,2-d]pyrimidin-5-yl)cyclobutyl)but-2-enamide]",100 to 1000
4,"C=CC(=O)N1CC[C@@H](n2ccc3ncnc(Oc4ccc(Oc5ccccc5)cc4)c32)C1 [Compound 34, (R)-1-(3-(4-(4-phenoxyphenoxy)-5H-pyrrolo[3,2-d]pyrimidin-5-yl)pyrrolidin-1-yl)prop-2-en-1-one]",100 to 1000
5,"C=CC(=O)N1CC(n2ccc3ncnc(Oc4ccc(NC(=O)c5ccccc5)cc4)c32)C1 [Compound 35, N-(4-((5-(1-acryloylazetidin-3-yl)-5H-pyrrolo[3,2-d]pyrimidin-4-yl)oxy)phenyl)benzamide]",100 to 1000
6,"CN(C)C/C=C/C(=O)N[C@H]1C[C@@H](n2ncc3ncnc(Oc4ccc(Oc5ccccc5)cc4)c32)C1 [Compound 36, (E)-4-(dimethylamino)-N-((1s,3s)-3-(7-(4-phenoxyphenoxy)-1H-pyrazolo[4,3-d]pyrimidin-1-yl)cyclobutyl)but-2-enamide]",100 to 1000
7,"C=CC(=O)N1CCC(Cn2ccc3ncnc(Oc4ccc(Oc5ccccc5)cc4)c32)CC1 [Compound 37, 1-(4-((4-(4-phenoxyphenoxy)-5H-pyrrolo[3,2-d]pyrimidin-5-yl)methyl)piperidin-1-yl)prop-2-en-1-one]",100 to 1000
8,"C/C=C/C(=O)N1CC(n2ccc3ncnc(Oc4ccc(Oc5ccccc5)cc4)c32)C1 [Compound 38, (E)-1-(3-(4-(4-phenoxyphenoxy)-5H-pyrrolo[3,2-d]pyrimidin-5-yl)azetidin-1-yl)but-2-en-1-one]",100 to 1000
9,"C=CC(=O)N[C@H]1CC[C@H](n2ccc3ncnc(Oc4ccc(Oc5ccccc5)cc4)c32)CC1 [Compound 39, N-(trans-4-(4-(4-phenoxyphenoxy)-5H-pyrrolo[3,2-d]pyrimidin-5-yl)cyclohexyl)acrylamide]",100 to 1000
10,"C=CC(=O)N1CCC(Cn2ccc3ncnc(-c4cccc(Oc5ccccc5)c4)c32)C1 (centres unmarked) [Compound 40, 1-(3-((4-(3-phenoxyphenyl)-5H-pyrrolo[3,2-d]pyrimidin-5-yl)methyl)pyrrolidin-1-yl)prop-2-en-1-one]",100 to 1000
11,"CN(C)C/C=C/C(=O)N[C@H]1C[C@H](n2ncc3ncnc(Oc4ccc(Oc5ccccc5)cc4)c32)C1 [Compound 41, (E)-4-(dimethylamino)-N-((1r,3r)-3-(7-(4-phenoxyphenoxy)-1H-pyrazolo[4,3-d]pyrimidin-1-yl)cyclobutyl)but-2-enamide]",100 to 1000
12,"C=CC(=O)NCCn1ccc2ncnc(Oc3ccc(Oc4ccccc4)cc3)c21 [Compound 42, N-(2-(4-(4-phenoxyphenoxy)-5H-pyrrolo[3,2-d]pyrimidin-5-yl)ethyl)acrylamide]",1000 to 5000
13,"C=CC(=O)N1CC(n2ccc3ncnc(Oc4cnn(Cc5ccccc5)c4)c32)C1 [Compound 43, 1-(3-(4-((1-benzyl-1H-pyrazol-4-yl)oxy)-5H-pyrrolo[3,2-d]pyrimidin-5-yl)azetidin-1-yl)prop-2-en-1-one]",1000 to 5000
14,"C=CC(=O)N1CCCC(Cn2ccc3ncnc(-c4cccc(Oc5ccccc5)c4)c32)C1 (centres unmarked) [Compound 44, 1-(3-((4-(3-phenoxyphenyl)-5H-pyrrolo[3,2-d]pyrimidin-5-yl)methyl)piperidin-1-yl)prop-2-en-1-one]",1000 to 5000
15,"C=CC(=O)N1CCC(Cn2ccc3ncnc(-c4cccc(Oc5ccccc5)c4)c32)CC1 [Compound 45, 1-(4-((4-(3-phenoxyphenyl)-5H-pyrrolo[3,2-d]pyrimidin-5-yl)methyl)piperidin-1-yl)prop-2-en-1-one]",1000 to 5000
16,"C=CC(=O)N1CCC(Cn2ccc3ncnc(-c4ccc(Oc5ccccc5)cc4)c32)C1 (centres unmarked) [Compound 46, 1-(3-((4-(4-phenoxyphenyl)-5H-pyrrolo[3,2-d]pyrimidin-5-yl)methyl)pyrrolidin-1-yl)prop-2-en-1-one]",1000 to 5000

row,SMILES,IC50 [nM]
1,"C=CC(=O)N1CCC(Cn2ccc3ncnc(-c4ccc(Oc5ccccc5)cc4)c32)CC1 [Compound 47, 1-(4-((4-(4-phenoxyphenyl)-5H-pyrrolo[3,2-d]pyrimidin-5-yl)methyl)piperidin-1-yl)prop-2-en-1-one]",> 5000
2,"C=CC(=O)N1CCCC(Cn2ccc3ncnc(-c4ccc(Oc5ccccc5)cc4)c32)C1 (centres unmarked) [Compound 48, 1-(3-((4-(4-phenoxyphenyl)-5H-pyrrolo[3,2-d]pyrimidin-5-yl)methyl)piperidin-1-yl)prop-2-en-1-one]",> 5000
3,"CC(C)=CC(=O)N1CC(n2ccc3ncnc(Oc4ccc(Oc5ccccc5)cc4)c32)C1 [Compound 49, 3-methyl-1-(3-(4-(4-phenoxyphenoxy)-5H-pyrrolo[3,2-d]pyrimidin-5-yl)azetidin-1-yl)but-2-en-1-one]",> 5000
4,"C=CC(=O)N1CCC(n2ccc3ncnc(-c4cccc(Oc5ccccc5)c4)c32)CC1 [Compound 50, 1-(4-(4-(3-phenoxyphenyl)-5H-pyrrolo[3,2-d]pyrimidin-5-yl)piperidin-1-yl)prop-2-en-1-one]",> 5000
5,"C=C(C)C(=O)N1CC(n2ccc3ncnc(Oc4ccc(Oc5ccccc5)cc4)c32)C1 [Compound 51, 2-methyl-1-(3-(4-(4-phenoxyphenoxy)-5H-pyrrolo[3,2-d]pyrimidin-5-yl)azetidin-1-yl)prop-2-en-1-one]",> 5000
6,"C=CC(=O)N1CC(n2ccc3ncc(-c4cnn(Cc5ccccc5)c4)nc32)C1 [Compound 52, 1-(3-(3-(1-benzyl-1H-pyrazol-4-yl)-5H-pyrrolo[2,3-b]pyrazin-5-yl)azetidin-1-yl)prop-2-en-1-one]",100 to 1000
7,"CCC/C=C(\C#N)C(=O)N1CCC(n2ccc3ncnc(Oc4ccc(Oc5ccccc5)cc4)c32)CC1 [Compound 55, (E)-2-(4-(4-(4-phenoxyphenoxy)-5H-pyrrolo[3,2-d]pyrimidin-5-yl)piperidine-1-carbonyl)hex-2-enenitrile]",1000 to 5000
8,"N#CN1CCC(n2ccc3ncnc(Oc4ccc(Oc5ccccc5)cc4)c32)CC1 [Compound 56, 4-(4-(4-phenoxyphenoxy)-5H-pyrrolo[3,2-d]pyrimidin-5-yl)piperidine-1-carbonitrile]",1000 to 5000
9,"N#CNC(=O)N1CCC(n2ccc3ncnc(Oc4ccc(Oc5ccccc5)cc4)c32)CC1 [Compound 57, N-cyano-4-(4-(4-phenoxyphenoxy)-5H-pyrrolo[3,2-d]pyrimidin-5-yl)piperidine-1-carboxamide]",100 to 1000
10,"N#CN1CCC(Cn2ccc3ncnc(Oc4ccc(Oc5ccccc5)cc4)c32)C1 (centres unmarked) [Compound 58, 3-[[4-(4-phenoxyphenoxy)-5H-pyrrolo[3,2-d]pyrimidin-5-yl]methyl]pyrrolidine-1-carbonitrile]",1000 to 5000
11,"N#CN1CCC(Cn2ccc3ncnc(Oc4ccc(Oc5ccccc5)cc4)c32)CC1 [Compound 59, 4-[[4-(4-phenoxyphenoxy)-5H-pyrrolo[3,2-d]pyrimidin-5-yl]methyl]piperidine-1-carbonitrile]",> 5000
12,"N#CN1CCCC1Cn1ccc2ncnc(Oc3ccc(Oc4ccccc4)cc3)c21 (centres unmarked) [Compound 61, 2-[[4-(4-phenoxyphenoxy)-5H-pyrrolo[3,2-d]pyrimidin-5-yl]methyl]pyrrolidine-1-carbonitrile]",1000 to 5000
13,"N#CN1CCCCC1Cn1ccc2ncnc(Oc3ccc(Oc4ccccc4)cc3)c21 (centres unmarked) [Compound 62, 2-[[4-(4-phenoxyphenoxy)-5H-pyrrolo[3,2-d]pyrimidin-5-yl]methyl]piperidine-1-carbonitrile]",1000 to 5000
14,"N#CN1CCCC(Cn2ccc3ncnc(Oc4ccc(Oc5ccccc5)cc4)c32)C1 (centres unmarked) [Compound 63, 3-[[4-(4-phenoxyphenoxy)-5H-pyrrolo[3,2-d]pyrimidin-5-yl]methyl]piperidine-1-carbonitrile]",> 5000
15,"N#CN1CCCC(n2ccc3ncnc(Oc4ccc(Oc5ccccc5)cc4)c32)C1 (centres unmarked) [Compound 64, 3-[4-(4-phenoxyphenoxy)-5H-pyrrolo[3,2-d]pyrimidin-5-yl]piperidine-1-carbonitrile]",100 to 1000
16,"N#CN1CCC1Cn1ccc2ncnc(Oc3ccc(Oc4ccccc4)cc3)c21 (centres unmarked) [Compound 65, 2-[[4-(4-phenoxyphenoxy)-5H-pyrrolo[3,2-d]pyrimidin-5-yl]methyl]azetidine-1-carbonitrile]",1000 to 5000
